Results reported in patent publication US6323193A, “Bioavailable oral dosage form of cefuroxime axetil” (Ranbaxy Laboratories Limited, priority 1999, dated 2001).
Like-named read-outs stand apart in the source and are kept apart here.

What was measured:
[1] = oral administration, cited from earlier work
[2] = Behaviour of amorphous cefuroxime axetil in contact with water (conversion to crystalline form, gel formation); type: physicochemical; conditions: formulation with sodium salt of citric acid
[3] = cited from earlier work
[4] = system: gram-positive and gram-negative microorganisms; conditions: cited from earlier work

CO/N=C(\C(=O)N[C@@H]1C(=O)N2C(C(=O)OC(C)OC(C)=O)=C(COC(N)=O)CS[C@H]12)c1ccco1 (stereo partly shown) [amorphous cefuroxime axetil]
bioavailability ([1]; listed as amorphous form of cefuroxime axetil): high bioavailability | bioavailability ([1]; listed as highly pure amorphous cefuroxime axetil): higher bioavailability than crystalline cefuroxime axetil | tendency to form a gel on addition of a sodium salt of citric acid [2]: inhibits the tendency of amorphous cefuroxime axetil to form a gel | gel formation ([3]; contact with water): forms a gel which prolongs the disintegration and retards the dissolution | conversion to the crystalline form ([3]; upon contact with water): gets converted to the crystalline form

CO/N=C(\C(=O)N[C@@H]1C(=O)N2C(C(=O)OC(C)OC(C)=O)=C(COC(N)=O)CS[C@H]12)c1ccco1 (stereo partly shown) [Cefuroxime axetil, 1-acetoxyethyl ester of cefuroxime]
spectrum of activity [4]: broad spectrum of activity

CO/N=C(\C(=O)N[C@@H]1C(=O)N2C(C(=O)OC(C)OC(C)=O)=C(COC(N)=O)CS[C@H]12)c1ccco1 (stereo partly shown) [Crystalline cefuroxime axetil]
bioavailability [1]: does not exhibit adequate bioavailability
